Measurements taken from US11458138B2 (Novartis AG, priority 2017, dated 2022).

Experiments:
[1] = target: Human LATS1 kinase domain protein (Homo sapiens (Human), UniProt O95835); test: LATS1 Biochemical Caliper Assay (Compound Examples 291-335); conditions: Caliper EZ Reader
Protocol: The LATS1 biochemical Caliper assay was performed as following.
Human LATS1 kinase domain protein was purchased from Carnabio (catalogue number 01-123; lot 15CBS-0098D). Human LATS1, catalytic domain [589-1130(end) amino acids of accession number NP_004681.1] was co-expressed as N-terminal GST-fusion protein (90 kDa) with human His-tagged MOBKL1A [1-216(end) amino acids of accession number NP_775739.1] using baculovirus expression system. GST-LATS1 was purified by using glutathione sepharose chromatography. The substrate (Fluo-SGKtide; Peptide for LATS1; lot BS-41067) has the following sequence: 5-Fluo-Nva-[…]-amide (SEQ ID NO: 27) x TFA and was purchased from Biosyntan.
The reaction is performed in reaction buffer containing 50 mM Hepes pH 7,5; 0.02% Tween20; 0.02% BSA; 1 mM DTT; 10 uM Na3VO4 and 10 mM beta-Glycerolphosphat and fresh added 1 mM MgCl2 and qsp H2O.
The substrate solution (2× conc.) in Reaction Buffer contains 300 μM ATP and 4 μM Fluo-SGKtide.
The kinase solution (2× conc.) in Reaction Buffer contains 20 nM LATS1 kinase. 4.5 μL of 2× conc. Kinase solution, 50 nL of 1.8 mM compounds and 4.5 μL of substrate solution were added into 384-well plates black small volume from Greiner and incubated at 32° C. for 1 hour. 15 μL of stop buffer containing 100 mM Hepes pH 7,5; 5% DMSO; 0.1% Coating reagent; 10 mM EDTA and 0.02% Brij35 and qsp H2O to each well to terminate the reaction.
Substrates and products were electrophoretically separated using the microfluidic-based Caliper EZ Reader System (Caliper Life Sciences) using a 12 sipper chip (cat 760404). The separation takes place in Coating Buffer (idem Stop buffer) and containing 0.1% Coating reagent CR3 and 0.5% coating reagent CR8 (Perkin Elmer).
Plates were read using a LED with an excitation at 488 nm and a detection at 520 nm to 5 quantify the fluorescence intensity.

[2] = system: Phospho-YAP (Ser127) in JHH-5 cells; test: pYAP HTRF Assay (JHH-5 cells); type: cell-based; conditions: 2 hours
How it was run: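 Phospho-YAP read by HTRF (665 nm/620 nm ×10000) in lysates after overnight 18 h antibody incubation at room temperature. Compound treatment lasted 2 h at 37 °C, on JHH-5 cells plated 24 h earlier at 24000 per well in William's E medium with 10% FBS.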

Sequence of Human LATS1 kinase domain protein (O95835 whole entry, looked up, the tested form may be a part): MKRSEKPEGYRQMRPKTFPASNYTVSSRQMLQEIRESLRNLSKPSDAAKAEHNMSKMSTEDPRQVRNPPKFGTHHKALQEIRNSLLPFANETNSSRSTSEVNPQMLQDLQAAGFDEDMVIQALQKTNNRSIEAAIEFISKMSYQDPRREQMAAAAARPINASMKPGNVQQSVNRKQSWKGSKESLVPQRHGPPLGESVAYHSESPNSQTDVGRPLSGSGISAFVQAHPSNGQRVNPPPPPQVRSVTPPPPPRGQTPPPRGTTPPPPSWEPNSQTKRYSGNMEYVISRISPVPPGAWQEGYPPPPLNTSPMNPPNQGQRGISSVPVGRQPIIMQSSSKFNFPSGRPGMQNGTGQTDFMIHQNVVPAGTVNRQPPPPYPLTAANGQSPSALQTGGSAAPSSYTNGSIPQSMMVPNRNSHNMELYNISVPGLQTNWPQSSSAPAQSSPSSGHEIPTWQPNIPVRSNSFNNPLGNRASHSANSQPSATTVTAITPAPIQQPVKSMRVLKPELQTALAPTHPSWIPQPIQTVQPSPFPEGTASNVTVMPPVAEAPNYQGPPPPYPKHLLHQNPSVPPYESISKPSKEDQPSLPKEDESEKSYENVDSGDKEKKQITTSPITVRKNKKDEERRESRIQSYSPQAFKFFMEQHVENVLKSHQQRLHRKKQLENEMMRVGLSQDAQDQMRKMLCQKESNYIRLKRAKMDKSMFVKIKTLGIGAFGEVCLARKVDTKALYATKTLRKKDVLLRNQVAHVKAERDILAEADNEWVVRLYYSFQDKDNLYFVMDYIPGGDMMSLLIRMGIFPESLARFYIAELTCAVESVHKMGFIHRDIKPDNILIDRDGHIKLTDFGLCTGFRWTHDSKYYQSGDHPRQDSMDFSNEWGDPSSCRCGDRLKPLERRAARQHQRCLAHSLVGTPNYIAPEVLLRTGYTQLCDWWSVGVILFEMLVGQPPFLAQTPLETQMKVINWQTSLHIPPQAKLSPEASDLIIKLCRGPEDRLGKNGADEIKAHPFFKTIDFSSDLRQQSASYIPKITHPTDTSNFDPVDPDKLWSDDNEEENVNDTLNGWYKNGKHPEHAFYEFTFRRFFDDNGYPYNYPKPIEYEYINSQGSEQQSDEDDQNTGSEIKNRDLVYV
Sequence of Human LATS1 kinase domain protein (Q7L9L4 whole entry partner, looked up, the tested form may be a part): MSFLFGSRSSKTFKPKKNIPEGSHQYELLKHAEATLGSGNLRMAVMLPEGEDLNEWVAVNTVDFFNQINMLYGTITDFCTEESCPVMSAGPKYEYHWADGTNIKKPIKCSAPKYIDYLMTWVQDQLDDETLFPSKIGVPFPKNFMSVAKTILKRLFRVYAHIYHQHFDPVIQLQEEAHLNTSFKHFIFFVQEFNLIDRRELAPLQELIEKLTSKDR

| Compound | IC50 [1] [nM] | IC50 [2] [nM] |
| --- | --- | --- |
| CC(C)(N)CNc1cc(-c2ccncc2)nc2cnccc12 [Example 295, 2-methyl-N1-(2-(pyridin-4-yl)-1,7-naphthyridin-4-yl)propane-1,2-diamine] | 10 | > 10000 |
| CC1(Nc2cc(-c3ccncc3)nc3cnccc23)CC1 [Example 297, N-(1-methylcycloropyl)-2-(pyridin-4-yl)-1,7-naphthyridin-4-amine] | 7.5 | > 10000 |
| CC(CN)CNc1cc(-c2ccncc2)nc2cnccc12 (stereo not drawn) [Example 304, 2-methyl-N^1-(2-(pyridin-4-yl)-1,7-naphthyridin-4-yl)propane-1,3-diamine] | 9.6 | > 10000 |
| FC(F)(F)[C@H]1CN(c2cc(-c3ccncc3)nc3cnccc23)CCN1 [Example 305, (R)-2-(pyridin-4-yl)-4-(3-(trifluoromethyl)piperazin-1-yl)-1,7-naphthyridine] | 663 |  |
| CN(C)CCC(C)(C)Nc1nc(-c2ccncn2)nc2cnccc12 [Example 308, N^1,N^1,3-trimethyl-N^3-(2-(pyrimidin-4-yl)pyrido[3,4-d]pyrimidin-4-yl)butane-1,3-diamine] | 68.7 | > 10000 |
| CC(C)(CNc1nc(-c2ccncc2)nc2cnccc12)NC(=O)OC(C)(C)C [Example 310, tert-butyl (2-methyl-1-((2-(pyridin-4-yl)pyrido[3,4-d]pyrimidin-4-yl)amino)propan-2-yl)carbamate] | 164 |  |
| CC(C)(C)OC(=O)NCCNc1nc(-c2ccncc2)nc2cnccc12 [Example 311, tert-butyl (2-((2-(pyridin-4-yl)pyrido[3,4-d]pyrimidin-4-yl)amino)ethyl)carbamate] | 1030 |  |
| CN(C)C(=O)C(C)(C)Nc1nc(-c2ccncc2)nc2cnccc12 [Example 314, N,N,2-trimethyl-2-((2-(pyridin-4-yl)pyrido[3,4-d]pyrimidin-4-yl)amino)propanamide] | 467 |  |
| CC(C)(CNC(=O)OC(C)(C)C)CNc1nc(-c2ccncc2)nc2cnccc12 [Example 316, tert-butyl (2,2-dimethyl-3-((2-(pyridin-4-yl)pyrido[3,4-d]pyrimidin-4-yl)amino)propyl)carbamate] | 42.5 |  |
| FC(F)(F)[C@H]1CN(c2nc(-c3ccncc3)nc3cnccc23)CCN1 [Example 319, (R)-2-(pyridin-4-yl)-4-(3-(trifluoromethyl)piperazin-1-yl)pyrido[3,4-d]pyrimidine] | 58.1 | > 10000 |
| CCOC(=O)C(C)(C)Nc1nc(-c2ccncc2)nc2cnccc12 [Example 322, ethyl 2-methyl-2-((2-(pyridin-4-yl)pyrido[3,4-d]pyrimidin-4-yl)amino)propanoate] | 29.2 |  |
| CC(C)(C)Nc1nc(-c2nonc2N)nc2cnccc12 [Example 324, 4-(4-(tert-butylamino)pyrido[3,4-d]pyrimidin-2-yl)-1,2,5-oxadiazol-3-amine] | 10.4 |  |
| CC(C)(Nc1nc(-c2ccncc2)nc2cnccc12)C(N)=O [Example 326, 2-methyl-2-((2-(pyridin-4-yl)pyrido[3,4-d]pyrimidin-4-yl)amino)propanamide] | 57.2 |  |
| C[C@](O)(CNc1cc(-c2ccncc2)nc2cnccc12)C(F)(F)F [Example 327, (S)-1,1,1-trifluoro-2-methyl-3-((2-(pyridin-4-yl)-1,7-naphthyridin-4-yl)amino)propan-2-ol] | 125 |  |
| CC(C)(CCNC(=O)OC(C)(C)C)Nc1nc(-c2ccncc2)nc2cnccc12 [Example 328, tert-butyl (3-methyl-3-((2-(pyridin-4-yl)pyrido[3,4-d]pyrimidin-4-yl)amino)butyl)carbamate] | 18.9 |  |
| CN(C)CCC(C)(C)Nc1nc(-c2ccnc(F)c2)nc2cnccc12 [Example 331, N^3-(2-(2-fluoropyridin-4-yl)pyrido[3,4-d]pyrimidin-4-yl)-N^1,N^1,3-trimethylbutane-1,3-diamine] | 10.5 |  |
| Cc1n[nH]c(C)c1-c1nc(NC(C)(C)CCN(C)C)c2ccncc2n1 [Example 332, N^3-(2-(3,5-dimethyl-1H-pyrazol-4-yl)pyrido[3,4-d]pyrimidin-4-yl)-N^1,N^1,3-trimethylbutane-1,3-diamine] | 7.6 |  |

These reach a lower IC50 [1]. Values come first.

| IC50 [1] [nM] | IC50 [2] [nM] | Compound |
| --- | --- | --- |
| 6.1 |  | CN(C)CCC(C)(C)Nc1nc(-c2ccnc(N)c2)nc2cnccc12 [Example 334, N^3-(2-(2-aminopyridin-4-yl)pyrido[3,4-d]pyrimidin-4-yl)-N^1,N^1,3-trimethylbutane-1,3-diamine] |
| 5.2 | > 10000 | CC(C)(CN)CNc1cc(-c2ccncc2)nc2cnccc12 [Example 301, 2,2-dimethyl-N1-(2-(pyridin-4-yl)-1,7-naphthyridin-4-yl)propane-1,3-diamine] |
| 5 | 5700 | CN(CCC(C)(C)N)c1nc(-c2ccncc2)nc2cnccc12 [Example 315, N^1,3-dimethyl-N^1-(2-(pyridin-4-yl)pyrido[3,4-d]pyrimidin-4-yl)butane-1,3-diamine] |
| 4.5 | 1100 | FC(F)(F)C1(Nc2cc(-c3ccncc3)nc3cnccc23)CCC1 [Example 294, 2-(pyridin-4-yl)-N-(1-(trifluoromethyl)cyclobutyl)-1,7-naphthyridin-4-amine] |
| 4.5 |  | CN(C)CC(C)(C)CNc1nc(-c2ccncc2)nc2cnccc12 [Example 323, N^1,N^1,2,2-tetramethyl-N^3-(2-(pyridin-4-yl)pyrido[3,4-d]pyrimidin-4-yl)propane-1,3-diamine] |
| 3.8 | 7800 | NCCNc1nc(-c2ccncc2)nc2cnccc12 [Example 313, N-(2-(pyridin-4-yl)pyrido[3,4-d]pyrimidin-4-yl)ethane-1,2-diamine] |
| 3.8 |  | FC(F)(F)[C@@H]1CN(c2nc(-c3ccncc3)nc3cnccc23)CCN1 [Example 321, (S)-2-(pyridin-4-yl)-4-(3-(trifluoromethyl)piperazin-1-yl)pyrido[3,4-d]pyrimidine] |
| 3.7 |  | CN(C)C(C)(C)CNc1nc(-c2ccncc2)nc2cnccc12 [Example 325, N^2,N^2,2-trimethyl-N^1-(2-(pyridin-4-yl)pyrido[3,4-d]pyrimidin-4-yl)propane-1,2-diamine] |
| 3.1 |  | CCN(CC)CCC(C)(C)Nc1nc(-c2ccncc2)nc2cnccc12 [Example 330, N,N-diethyl-3-methyl-N^3-(2-(pyridin-4-yl)pyrido[3,4-d]pyrimidin-4-yl)butane-1,3-diamine] |
| 3 |  | CN(C)CC(C)(C)CN(C)c1nc(-c2ccncc2)nc2cnccc12 [Example 329, N^1,N^1,N^3,2,2-pentamethyl-N^3-(2-(pyridin-4-yl)pyrido[3,4-d]pyrimidin-4-yl)propane-1,3-diamine] |
| 2.4 | 7700 | CC(C)(N)CNc1nc(-c2ccncc2)nc2cnccc12 [Example 312, 2-methyl-N^1-(2-(pyridin-4-yl)pyrido[3,4-d]pyrimidin-4-yl)propane-1,2-diamine] |
| 2.3 |  | CN(C)CCC(C)(C)Nc1nc(-c2c[nH]nc2C(F)(F)F)nc2cnccc12 [Example 333, N^1,N,3-trimethyl-N^3-(2-(3-(trifluoromethyl)-1H-pyrazol-4-yl)pyrido[3,4-d]pyrimidin-4-yl)butane-1,3-diamine] |
| 1.9 | 1300 | CC1(Nc2cc(-c3ccncn3)nc3cnccc23)CCC1 [Example 307, N-(1-methylcyclobutyl)-2-(pyrimidin-4-yl)-1,7-naphthyridin-4-amine] |
| 1.8 | 3100 | CC(C)(CC(N)=O)Nc1nc(-c2ccncc2)nc2cnccc12 [Example 318, 3-methyl-3-((2-(pyridin-4-yl)pyrido[3,4-d]pyrimidin-4-yl)amino)butanamide] |
| 1.2 | 900 | CC1(Nc2cc(-c3ccncc3)nc3cnccc23)CCC1 [Example 300, N-(1-methylcyclobutyl)-2-(pyridin-4-yl)-1,7-naphthyridin-4-amine] |
| 1.2 | 1000 | CN(c1cc(-c2ccncc2)nc2cnccc12)C(C)(C)C [Example 306, N-(tert-butyl)-N-methyl-2-(pyridin-4-yl)-1,7-naphthyridin-4-amine] |
| 0.8 | 2000 | Cc1n[nH]cc1-c1nc(NC(C)(C)CCN(C)C)c2ccncc2n1 [Example 309, N^1,N^1,3-trimethyl-N^3-(2-(3-methyl-1H-pyrazol-4-yl)pyrido[3,4-d]pyrimidin-4-yl)butane-1,3-diamine] |
| 0.8 | 3200 | CC(C)(CN)CNc1nc(-c2ccncc2)nc2cnccc12 [Example 317, 2,2-dimethyl-N^1-(2-(pyridin-4-yl)pyrido[3,4-d]pyrimidin-4-yl)propane-1,3-diamine] |
